In one assay the target is Acetyl-CoA carboxylase 1 (Homo sapiens, UniProt Q13085). As to the kind of experiment: In Vitro Assay of Acetyl-CoA Carboxylase (ACC) Inhibition. As to the method:
(§1) An exemplary procedure for the in vitro ACC inhibition assay, which can be used to determine the inhibitory action of the compounds of the invention toward either ACC1 or ACC2, is as follows. The ADP-Glo™ kinase assay kit from Promega was used. The ADP-Glo™ kinase assay is a luminescent ADP detection assay to measure enzymatic activity by quantifying the amount of ADP produced during an enzyme reaction. The assay was performed in two steps; first, after the enzyme reaction, an equal volume of ADP-Glo™ reagent was added to terminate the reaction and deplete the remaining ATP. Then, the kinase detection reagent was added to simultaneously convert ADP to ATP and allow the newly synthesized ATP to be measured using a luciferase/luciferin reaction. Luminescence can be correlated to ADP concentrations by using an ATP-to-ADP conversion curve. The detailed procedure was as follows. 4.5 μL of a working solution was added to a 384-well plate. […] A final ACC reaction solution consisted of: 0.5 nM ACC, 10 μM ATP, 5 μM acetyl-CoA, and 15 mM NaHCO3; and the final concentrations of the compound were measured as follows: 1 μM, 0.333 μM, 0.111 μM, 0.037 μM, 0.0123 μM, 0.00411 μM, 0.00137 μM, 0.000457 μM, 0.000152 μM, and 0.000051 μM. […] The plates were incubated at room temperature for 40 minutes, then read on a Perkin Elmer EnVision 2104 plate reader for luminescence in relative light unit (RLU).

A further assay has as its target Acetyl-CoA carboxylase 2 (Homo sapiens, UniProt O00763). The description is as above. The protocol: as §1

Acetyl-CoA carboxylase 2, sequence (O00763 whole entry): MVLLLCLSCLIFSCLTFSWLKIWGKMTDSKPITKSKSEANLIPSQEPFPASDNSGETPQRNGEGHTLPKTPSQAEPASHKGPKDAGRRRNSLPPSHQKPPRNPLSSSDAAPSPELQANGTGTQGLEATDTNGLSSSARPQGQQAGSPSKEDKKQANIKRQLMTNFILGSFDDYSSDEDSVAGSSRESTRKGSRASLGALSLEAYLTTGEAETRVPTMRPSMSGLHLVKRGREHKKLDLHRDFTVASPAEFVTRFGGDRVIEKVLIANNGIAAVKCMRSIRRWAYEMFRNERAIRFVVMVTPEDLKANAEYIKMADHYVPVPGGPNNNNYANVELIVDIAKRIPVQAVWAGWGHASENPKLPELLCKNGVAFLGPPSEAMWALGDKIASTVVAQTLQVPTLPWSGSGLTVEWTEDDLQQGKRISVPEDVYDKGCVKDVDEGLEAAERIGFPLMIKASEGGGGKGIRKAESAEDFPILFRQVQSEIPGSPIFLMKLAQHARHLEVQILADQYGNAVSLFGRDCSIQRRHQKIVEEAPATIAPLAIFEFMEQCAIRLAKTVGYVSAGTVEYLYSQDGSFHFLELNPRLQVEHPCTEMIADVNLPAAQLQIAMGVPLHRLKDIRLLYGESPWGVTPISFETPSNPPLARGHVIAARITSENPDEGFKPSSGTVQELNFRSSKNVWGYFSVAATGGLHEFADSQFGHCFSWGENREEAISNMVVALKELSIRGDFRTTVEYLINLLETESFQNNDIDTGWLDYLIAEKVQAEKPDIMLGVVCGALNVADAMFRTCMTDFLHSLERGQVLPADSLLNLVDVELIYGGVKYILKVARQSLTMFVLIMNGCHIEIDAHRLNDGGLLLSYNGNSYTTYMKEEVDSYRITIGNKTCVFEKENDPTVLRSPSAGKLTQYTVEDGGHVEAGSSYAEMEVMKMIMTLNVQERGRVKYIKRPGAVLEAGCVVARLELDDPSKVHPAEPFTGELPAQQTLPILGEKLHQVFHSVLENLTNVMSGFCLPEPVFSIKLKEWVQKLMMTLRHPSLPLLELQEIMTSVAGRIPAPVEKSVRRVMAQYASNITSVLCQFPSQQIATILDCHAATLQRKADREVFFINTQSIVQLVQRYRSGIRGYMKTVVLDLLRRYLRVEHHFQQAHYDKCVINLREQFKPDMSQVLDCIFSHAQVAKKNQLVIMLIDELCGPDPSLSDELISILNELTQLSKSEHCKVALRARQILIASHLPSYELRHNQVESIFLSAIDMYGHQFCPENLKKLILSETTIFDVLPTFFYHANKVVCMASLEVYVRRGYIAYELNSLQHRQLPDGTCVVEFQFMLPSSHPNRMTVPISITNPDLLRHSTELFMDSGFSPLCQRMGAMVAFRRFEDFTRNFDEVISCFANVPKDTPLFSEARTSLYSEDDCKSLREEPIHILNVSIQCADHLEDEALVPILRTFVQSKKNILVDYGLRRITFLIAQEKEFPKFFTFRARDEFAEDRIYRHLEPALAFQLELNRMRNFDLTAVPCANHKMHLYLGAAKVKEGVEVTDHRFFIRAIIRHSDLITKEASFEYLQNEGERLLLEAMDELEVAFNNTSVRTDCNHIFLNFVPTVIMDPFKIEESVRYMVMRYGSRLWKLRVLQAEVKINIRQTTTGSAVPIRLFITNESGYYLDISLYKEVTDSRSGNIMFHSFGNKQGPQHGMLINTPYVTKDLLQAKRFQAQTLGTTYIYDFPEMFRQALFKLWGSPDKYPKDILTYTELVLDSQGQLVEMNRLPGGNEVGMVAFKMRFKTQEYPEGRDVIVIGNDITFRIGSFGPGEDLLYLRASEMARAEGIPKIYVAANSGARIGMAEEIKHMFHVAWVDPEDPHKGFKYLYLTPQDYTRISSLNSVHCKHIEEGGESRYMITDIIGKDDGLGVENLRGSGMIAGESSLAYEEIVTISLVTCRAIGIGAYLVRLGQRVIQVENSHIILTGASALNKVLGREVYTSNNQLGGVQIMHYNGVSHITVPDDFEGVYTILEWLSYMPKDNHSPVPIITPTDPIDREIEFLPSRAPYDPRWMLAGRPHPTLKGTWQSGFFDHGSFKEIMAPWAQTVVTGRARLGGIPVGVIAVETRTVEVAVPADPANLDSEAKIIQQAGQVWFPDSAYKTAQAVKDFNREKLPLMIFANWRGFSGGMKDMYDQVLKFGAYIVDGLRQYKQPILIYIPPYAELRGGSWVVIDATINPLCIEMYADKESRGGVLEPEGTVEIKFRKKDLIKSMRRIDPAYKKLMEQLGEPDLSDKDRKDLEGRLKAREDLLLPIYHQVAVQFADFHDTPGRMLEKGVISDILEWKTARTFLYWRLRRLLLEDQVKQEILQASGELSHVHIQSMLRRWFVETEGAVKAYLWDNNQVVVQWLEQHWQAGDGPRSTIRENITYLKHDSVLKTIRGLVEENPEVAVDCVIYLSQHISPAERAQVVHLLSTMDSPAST

As for `COc1ccccc1[C@H](Cn1c(=O)n(CC2CC(C(=O)O)C2)c(=O)c2c(C)c(-c3ncco3)sc21)OC1CCOCC1` (some centres not stated) [US12384798, Compound c-1], the results for the IC50 against Acetyl-CoA carboxylase 1 and on Acetyl-CoA carboxylase 2 were 0.487 nM and 10 nM, respectively.

Values taken from BindingDB's records for patent US12384798 (Nanjing Ruijie Pharma Co., 2025).
